In patent publication US9605005B2, “Alkynyl alcohols and methods of use” (Genentech, Inc., priority 2013, dated 2017):

The compounds below were run against nuclear factor-kappa B (NF-kB)-inducing kinase (NIK) (Homo sapiens (Human), UniProt Q99558) (assay: NIK enzyme inhibition assay (Transcreener ADP, NIK ADP-FP)). Settings: purified NIK 0.5 nM, 10 μM ATP, fluorescence polarization; read-out: NIK ADP-FP (Ki μM).
Format: biochemical

Sequence of nuclear factor-kappa B (NF-kB)-inducing kinase (NIK) (Q99558 whole entry): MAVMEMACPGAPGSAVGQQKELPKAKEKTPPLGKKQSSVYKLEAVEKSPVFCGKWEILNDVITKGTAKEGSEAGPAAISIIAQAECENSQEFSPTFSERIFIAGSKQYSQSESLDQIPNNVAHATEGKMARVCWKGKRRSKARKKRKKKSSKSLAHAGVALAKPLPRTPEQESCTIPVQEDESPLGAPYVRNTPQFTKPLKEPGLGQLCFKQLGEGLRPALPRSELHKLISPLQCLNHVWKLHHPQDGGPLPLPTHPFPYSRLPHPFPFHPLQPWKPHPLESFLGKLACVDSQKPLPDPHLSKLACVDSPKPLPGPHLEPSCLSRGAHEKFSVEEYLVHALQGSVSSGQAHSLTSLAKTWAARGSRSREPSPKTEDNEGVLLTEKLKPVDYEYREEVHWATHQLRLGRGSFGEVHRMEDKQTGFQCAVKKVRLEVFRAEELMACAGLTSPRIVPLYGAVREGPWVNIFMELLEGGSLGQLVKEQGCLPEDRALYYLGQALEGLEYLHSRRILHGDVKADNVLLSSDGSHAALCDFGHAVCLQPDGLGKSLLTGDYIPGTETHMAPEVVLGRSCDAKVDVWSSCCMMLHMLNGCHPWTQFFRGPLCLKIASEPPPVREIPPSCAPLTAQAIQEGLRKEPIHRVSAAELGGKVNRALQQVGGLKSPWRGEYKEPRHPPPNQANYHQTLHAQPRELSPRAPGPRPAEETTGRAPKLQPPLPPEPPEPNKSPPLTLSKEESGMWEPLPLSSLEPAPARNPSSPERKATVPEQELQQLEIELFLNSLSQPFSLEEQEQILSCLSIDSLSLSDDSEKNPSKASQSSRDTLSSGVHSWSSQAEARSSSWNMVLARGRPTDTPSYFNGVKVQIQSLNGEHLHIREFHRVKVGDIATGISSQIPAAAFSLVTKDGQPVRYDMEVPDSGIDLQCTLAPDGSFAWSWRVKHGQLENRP

First: CN1CC[C@@](O)(C#Cc2cccc(-n3nc(C(N)=O)c4c3CCNC4)c2)C1=O [Compound 21, 1-[3-[2-[(3R)-3-hydroxy-1-methyl-2-oxo-pyrrolidin-3-yl]ethynyl]phenyl]-4,5,6,7-tetra-hydropyrazolo[4,3-c]pyri-dine-3-carboxamide]
Second: CN1CC[C@@](O)(C#Cc2cccc(-n3nc(C(N)=O)c4c3CCN([S@+](C)[O-])C4)c2)C1=O [Compound 124, 1-[3-[2-[(3R)-3-hydroxy-1-methyl-2-oxo-pyrrolidin-3-yl]ethynyl]phenyl]-5-[(S)-methylsulfinyl]-6,7-dihydro-4H-pyrazolo[4,3-c]pyridine-3-carboxamide]
The Ki of the first is 5-fold higher: 233 nM for the first, 46.4 nM for the second. The second binds more tightly here.

Compared with `CN(Cc1ccc2c(c1)c(C(N)=O)nn2-c1cc(C#C[C@]2(O)CCN(C)C2=O)ccn1)C(=O)CCCN` [Compound 141, 5-[[4-aminobutanoyl(meth-yl)amino]methyl]-1-[4-[2-[(3R)-3-hydroxy-1-methyl-2-oxo-pyrrolidin-3-yl]ethynyl]-2-pyridyl]indazole-3-carbox-amide], `CN1CC[C@@](O)(C#Cc2cccc(-n3nc(C(N)=O)c4[nH]c(=O)ccc43)c2)C1=O` [Compound 108, 1-[3-[2-[(3R)-3-hydroxy-1-methyl-2-oxo-pyrrolidin-3-yl]ethynyl]phenyl]-5-oxo-4H-pyrazolo[4,3-b]pyridine-3-carboxamide] is 14-fold lower in Ki: 3.27 nM for the first, 0.24 nM for the second.

Compared with `CN(C)C(=O)C(O)C#Cc1cccc(-n2nc(C(N)=O)c3ccccc32)c1` (stereo not shown) [Compound 163, 1-[3-[4-(dimethyalmino)-3-hydroxy-4-oxo-but-1-ynyl]phenyl]indazole-3-carboxamide], `CN1C[C@@H](O)[C@](O)(C#Cc2cccc(-n3nc(C(N)=O)c4ccccc43)c2)C1=O` [Compound 127, 1-[3-[2-[(3R,4R)-3,4-dihydroxy-1-methyl-2-oxo-pyrroli-din-3-yl]ethynyl]phenyl]inda-zole-3-carboxamide] is 25-fold lower in Ki: 250 nM for the first, 10.2 nM for the second. The second binds more tightly here.

First: N#Cc1cc2c(cn1)c(C(N)=O)nn2-c1cccc(C#C[C@]2(O)CCc3cccnc32)c1 [Compound 134, 6-cyano-1-[3-[2-[(7R)-7-hy-droxy-5,6-dihydrocyclopen-ta[b]pyridin-7-yl]ethynyl]phe-nyl]pyrazolo[4,3-c]pyridine-3-carboxamide]
Second: C[C@@](O)(C#Cc1cccc(-n2nc(C(N)=O)c3ccccc32)c1)c1ncccn1 [Compound 28, 1-[3-[(3R)-3-hydroxy-3-pyri-midin-2-yl-but-1-ynyl]phe-nyl]indazole-3-carboxamide]
The Ki of the first is 36-fold higher: 1250 nM for the first, 35.2 nM for the second. The second binds more tightly here.

`CN1CC[C@@](O)(C#Cc2cccc(-n3nc(C(N)=O)c4c3CS(=O)(=O)CC4)c2)C1=O` [Compound 68, 1-[3-[2-[(3R)-3-hydroxy-1-methyl-2-oxo-pyrrolidin-3-yl]ethynyl]phenyl]-6,6-dioxo-5,7-dihydro-4H-thiopyra-no[3,4-c]pyrazole-3-carbox-amide] and `CN1CC[C@@](O)(C#Cc2cccc(-n3nc(C(N)=O)c4c3CCN(C3COC3)C4)c2)C1=O` [Compound 33, 1-[3-[2-[(3R)-3-hydroxy-1-methyl-2-oxo-pyrrolidin-3-yl]ethynyl]phenyl]-5-(oxetan-3-yl)-6,7-dihydro-4H-pyra-zolo[4,3-c]pyridine-3-carbox-amide] are within 1.5-fold of each other in Ki: 237 nM for the first, 259 nM for the second.

Compared with `CC(=O)N1CC(c2cnc3c(c2)c(C(N)=O)nn3-c2cccc(C#C[C@]3(O)CCN(C)C3=O)c2)C1` [Compound 107, 5-(1-acetylazetidin-3-yl)-1-[3-[2-[(3R)-3-hydroxy-1-meth-yl-2-oxo-pyrrolidin-3-yl]ethynyl]phenyl]pyrazolo[3,4-b]pyridine-3-carboxamide], `COc1cccc2c(C(N)=O)nn(-c3cccc(C#C[C@]4(O)CCN(C)C4=O)c3)c12` [Compound 23, 1-[3-[2-[(3R)-3-hydroxy-1-methyl-2-oxo-pyrrolidin-3-yl]ethynyl]phenyl]-7-methoxy-indazole-3-carboxamide] is 5.4-fold higher in Ki: 1.82 nM for the first, 9.75 nM for the second. The first binds more tightly here.

`CN1CC[C@@](O)(C#Cc2ccnc(-n3nc(C(N)=O)c4c3C[C@H](O)CC4)c2)C1=O` [Compound 61, (6R)-6-hydroxy-1-[4-[2-[(3R)-3-hydroxy-1-methyl-2-oxo-pyrrolidin-3-yl]ethynyl]-2-pyridyl]-4,5,6,7-tetrahydro-indazole-3-carboxamide] and `CN1CC[C@@](O)(C#Cc2ccnc(-n3nc(C(N)=O)c4c3C[C@@H](O)CC4)c2)C1=O` [Compound 62, (6S)-6-hydroxy-1-[4-[2-[(3R)-3-hydroxy-1-methyl-2-oxo-pyrrolidin-3-yl]ethynyl]-2-pyridyl]-4,5,6,7-tetrahydro-indazole-3-carboxamide] are within 1.5-fold of each other in Ki: 4.46 nM for the first, 5.47 nM for the second.

First: CN1CC[C@@](O)(C#Cc2ccnc(-n3nc(C(N)=O)c4c3CC(C)(C)[C@@H](O)C4)c2)C1=O [Compound 11, (5S)-5-hydroxy-1-[4-[2-[(3R)-3-hydroxy-1-methyl-2-oxo-pyrrolidin-3-yl]ethynyl]-2-pyridyl]-6,6-dimethyl-5,7-dihydro-4H-indazole-3-carboxamide]
Second: CN1CC[C@@](O)(C#Cc2ccnc(-n3nc(C(N)=O)c4c3CC(C)(C)[C@H](O)C4)c2)C1=O [Compound 9, (5R)-5-hydroxy-1-[4-[2-[(3R)-3-hydroxy-1-methyl-2-oxo-pyrrolidin-3-yl]ethynyl]-2-pyridyl]-6,6-dimethyl-5,7-dihydro-4H-indazole-3-carboxamide]
The Ki of the first is 2.5-fold lower: 13.4 nM for the first, 33.2 nM for the second.

First: CN1CC[C@@](O)(C#Cc2ccnc(-n3nc(C(N)=O)c4c3CC(C)(C)[C@H](OCc3ccccc3)C4)c2)C1=O [Compound 8, (5R)-5-benzyloxy-1-[4-[2-[(3R)-3-hydroxy-1-methyl-2-oxo-pyrrolidin-3-yl]ethynyl]-2-pyridyl]-6,6-dimethyl-5,7-dihydro-4H-indazole-3-carboxamide]
Second: CN1CC[C@@](O)(C#Cc2ccnc(-n3nc(C(N)=O)c4c3CC3CC4C3)c2)C1=O [Compound 59, (R)-1-(4-((3-hydroxy-1-meth-yl-2-oxopyrrolidin-3-yl)eth-ynyl)pyridin-2-yl)-4,5,6,7-tetrahydro-1H-4,6-methano-indazole-3-carboxamide]
The Ki of the first is 10-fold higher: 72.4 nM for the first, 7.2 nM for the second.

First: CN1C[C@H](O)[C@@](O)(C#Cc2cccc(-n3nc(C(N)=O)c4ccccc43)c2)C1=O [Compound 125, 1-[3-[2-[(3S,4S)-3,4-dihydroxy-1-methyl-2-oxo-pyrroli-din-3-yl]ethynyl]phenyl]in-dazole-3-carboxamide]
Second: CN1CC[C@](O)(C#Cc2cccc(-n3nc(C(N)=O)c4c3C(=O)NC4)c2)C1=O [Compound 143, 1-[3-[2-[(3S)-3-hydroxy-1-methyl-2-oxo-pyrrolidin-3-yl]ethynyl]phenyl]-6-oxo-4,5-dihydropyrrolo[3,4-c]pyra-zole-3-carboxamide]
The Ki of the first is 13-fold higher: 19.6 nM for the first, 1.54 nM for the second.

Going from `CN1CC[C@@](O)(C#Cc2cccc(-n3nc(C(N)=O)c4c3CCC[C@H]4NC(=O)C3CC3)c2)C1=O` [Compound 32, (4R)-4-(cyclopropanecarbonyl-amino)-1-[3-[2-[(3R)-3-hydroxy-1-methyl-2-oxo-pyrroli-din-3-yl]ethynyl]phenyl]-4,5,6,7-tetrahydroindazole-3-carboxamide] to `Cc1sc(-c2cc(C#C[C@]3(O)CCN(C)C3=O)ccc2F)nc1C(N)=O` [Compound 197, 2-[2-fluoro-5-[2-[(3R)-3-hydroxy-1-methyl-2-oxo-pyrrolidin-3-yl]ethynyl]phenyl]-5-methyl-thiazole-4-carboxamide], the Ki falls from 1040 nM to 0.053 nM (20000-fold).
